# Source: ChEMBL document CHEMBL1143411, “Concentration-effect relationship of ceftazidime explains why the time above the MIC is 40 percent for a static effect in vivo” (Antimicrob Agents Chemother, 2007)
# Legend:
# [1] = tested on: Pseudomonas aeruginosa; assay: Antibacterial activity against Pseudomonas aeruginosa ATCC 27853 by microdilution method; type: functional, organism-based
# [2] = tested on: Pseudomonas aeruginosa; assay: Antibacterial activity against Pseudomonas aeruginosa ATCC 27853 assessed as bacterial growth rate by time-kill study; type: functional
# [3] = tested on: Pseudomonas aeruginosa; assay: Antibacterial activity against Pseudomonas aeruginosa ATCC 27853 assessed as maximum bacterial kill rate by time-kill study; type: functional
# [4] = Volume of distribution in mouse; type: ADME, organism-based; conditions: in vivo, read-out: Vc
# [5] = Elimination rate constant in mouse; type: ADME, organism-based; conditions: in vivo
# [6] = Volume of distribution in human; type: ADME, organism-based; conditions: in vivo, read-out: Vc
# [7] = Elimination rate constant in human; type: ADME, organism-based; conditions: in vivo
# [8] = tested on: Homo sapiens; assay: %fT>MIC in human at 20.2 mg/kg administered every 4 hrs; type: ADME, organism-based; parameters: dose 20.2 mg/kg; conditions: in vivo
# [9] = tested on: Mus musculus; assay: %fT>MIC in mouse at 2.12 mg/kg administered every 2 hrs; type: ADME, organism-based; parameters: dose 2.12 mg/kg; conditions: in vivo
# [10] = tested on: Mus musculus; assay: %fT>MIC in mouse at 4.60 mg/kg administered every 3 hrs; type: ADME, organism-based; parameters: dose 4.6 mg/kg; conditions: in vivo, 4.6 mg/kg
# [11] = tested on: Mus musculus; assay: %fT>MIC in mouse at 9.29 mg/kg administered every 4 hrs; type: ADME, organism-based; parameters: dose 9.29 mg/kg; conditions: in vivo
# [12] = tested on: Mus musculus; assay: %fT>MIC in mouse at 35.6 mg/kg administered every 6 hrs; type: ADME, organism-based; parameters: dose 35.6 mg/kg; conditions: in vivo
# [13] = tested on: Mus musculus; assay: %fT>MIC in mouse at 129.7 mg/kg administered every 8 hrs; type: ADME, organism-based; parameters: dose 129.7 mg/kg; conditions: in vivo
# [14] = tested on: Homo sapiens; assay: %fT>MIC in human at 38.9 mg/kg administered every 6 hrs; type: ADME, organism-based; parameters: dose 38.9 mg/kg; conditions: in vivo
# [15] = tested on: Homo sapiens; assay: %fT>MIC in human at 59.8 mg/kg administered every 8 hrs; type: ADME, organism-based; parameters: dose 59.8 mg/kg; conditions: in vivo
# [16] = tested on: Homo sapiens; assay: %fT>MIC in human at 121 mg/kg administered every 12 hrs; type: ADME, organism-based; parameters: dose 121 mg/kg; conditions: in vivo
smiles,measurement,setting,value
CC(C)(O/N=C(\C(=O)N[C@@H]1C(=O)N2C(C(=O)[O-])=C(C[n+]3ccccc3)CS[C@H]12)c1csc(N)n1)C(=O)O [CEFTAZIDIME],EC50,[1],1.22 µg/mL
same,Activity,[2],-1.41 h⁻¹
same,Activity,[3],4.15 h⁻¹
same,Vd,[4],0.5 L/kg
same,k el,[5],0.000544 s⁻¹
same,Vd,[6],1.4 L
same,k el,[7],0.000128 s⁻¹
same,fT>MIC,[8],23.7%
same,fT>MIC,[9],37.3%
same,fT>MIC,[10],38.1%
same,fT>MIC,[11],37.6%
same,fT>MIC,[12],36.5%
same,fT>MIC,[13],35.7%
same,fT>MIC,[14],36.3%
same,fT>MIC,[15],37.9%
same,fT>MIC,[16],37.7%
